Entries after “also recorded” stand apart in the source; their conditions may differ. Read-outs that look alike come from different tables or passages of the source.
Assays:
[1] = test system: parasites in human RBC culture; test: Parasite growth (parasitemia) in human RBC culture with ALDH inhibitor; type: cell-based
Protocol: FIG. 8 depicts the effect of ALDH inhibitor, disulfiram, on parasitemia in RBC. Parasitemia were determined 24 and 72 hours after the addition of disulfiram at the indicated concentrations.
Disulfirm and diadzin are used as deterrents for treatment of alcoholism, and as such, are both safe and effective ALDH2 inhibitors. […] As a negative control, pyrazole, an alcohol dehydrogenase inhibitor, at a concentration as high as 500 μM has no effect on the growth of parasites.

[2] = expected
P. berghei = conditions: wild type mice; expected
From the text: In this model, infections with P. berghei ANKA and NK65 strains yield highly reproducible peripheral parasitemias and gametocytemias that are infectious to An. stephensi. […] The ALDH2*2 mouse is on a C57/BL6 background, a mouse strain that is the most susceptible among common mouse strains to hepatic infection with P. berghei (Scheller L. F., et al. Susceptibility of different strains of mice to hepatic infection with Plasmodium berghei. Infect Immun. 1994; 62(11):4844-7). […] On the day of infection, mice in each of the experimental groups are infected by bite of An. stephensi (5-10 mosquitoes/mouse).
During P. berghei infection, liver stages and accompanying pathology are evident by 39 hr post-infection (Scheller L. F., et al. Susceptibility of different strains of mice to hepatic infection with Plasmodium berghei. Infect Immun. 1994; 62(11):4844-7), peripheral parasitemia is evident by 4-5 days post-infection, and gametocytemia rises with peripheral parasitemia to become infectious to An. stephensi. Based on these parameters, mice that are not sacrificed within 39-48 hrs post-infection to assess liver stage parasites and pathology are examined daily for peripheral parasitemia beginning at 3 days post-infection.

P. falciparum [3] = conditions: cited from earlier work
P. falciparum [4] = test: Parasitemia in P. falciparum infected human red blood cells treated with acetaldehyde; type: cell-based, Plasmodium falciparum; conditions: acetaldehyde μM range (low levels); Geimsa stain and flow cytometry; preliminary data
Protocol: Parasitemia counts were determined by Geimsa stain and FACS.
[…] Exp. Res., 22: 1161-1164). […] Further, μM concentrations of 4HNE are also very common under conditions of infection, inflammation or fever (e.g. during the chill-fever cycles of malaria).

[5] = 2.5 alcoholic drinks (0.5 g/kg body weight), cited from earlier work
[6] = after drinking alcohol; cited from earlier work

## c1cn[nH]c1 [pyrazole]
[1]; negative control, concentration as high as 500 μM
  effect on the growth of parasites: no effect

## CCO [ethanol]
[2]; 1.5 to 4.0 g/kg acute ethanol administration
  difference in blood acetaldehyde level between wild type and ALDH2*2 mutant animals: at least 5 fold
[2]; after single dose of ethanol
  duration of the difference in blood acetaldehyde level: 4 to 6 h
P. berghei
  parasite infection, histopathology, or transmission due to ethanol treatment: no significant differences

## CCCCCC(O)C=CC=O (stereo not drawn) [4HNE, 4-Hydroxy-2-nonenal]
P. falciparum [3]; 50-100 μM
  reduction of growth of P. falciparum relative to controls: 50-100%
P. falciparum [3]
  toxicity to malaria parasites in vitro: toxic

## CC=O [acetaldehyde]
P. falciparum [4]
  growth of P. falciparum / parasitemia in human RBCs: inhibit growth; also recorded: reduces parasitemia
P. falciparum [3]
  toxicity to malaria parasites in vitro: toxic
[5]; human ALDH2*2 heterozygotic subjects
  blood acetaldehyde level: 60 µM
[5]; subjects with wild type enzyme
  blood acetaldehyde level: ~2 µM
[6]
  acetaldehyde concentration in human saliva: ≥ 450 µM

## tetraethylthioperoxydicarbonic diamide [disulfiram]
[1]; human RBC culture, in the absence of alcohol, read-out: inhibition of parasite growth IC50
  IC50: 9.7 µM

Reference: patent publication US20160008419A1, “Methods and Compositions for the Prevention and Treatment of Parasitic Disease” (THE BOARD OF TRUSTEES OF THE LELAND STANFORD JUNIOR …, priority 2013, published 2016)
